Measurements reported in patent US9708286B2, “Ingenol-3-acylates III and ingenol-3-carbamates” (LEO Laboratories Limited, priority 2010, dated 2017).

What was measured:
Type in all cases: cell-based
[1] = test system: Primary human epidermal keratinocytes, HeKa; assay: HeKa cytokine release (IL-8); conditions: Homo sapiens, HEKa, 6 h, read-out: HeKa cytokine release (IL-8) Rel EC50 range
How it was run: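 Seeded cells exposed to compound dilutions for 6 h at 37° C; IL-8 in supernatant quantified by MSD sandwich electrochemiluminescence immunoassay. Effects normalized to positive control (1.5×10^−7 M PEP0005), four-parameter sigmoidal fit; Rel EC50 is concentration midway between fitted top and bottom.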

HeLa cells = assay: Necrosis assay; conditions: Homo sapiens, HeLa, 0.5 h, read-out: HeLa necrosis EC50 range
How it was run: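 HeLa cells treated with compound at 10 μM to 400 μM (final) for 30 min at 37° C., viability then measured by PrestoBlue fluorescence (ex 535/em 630 nm). Normalized to 1% DMSO and 400 μM ingenol mebutate controls; AbsEC50 from four-parameter sigmoidal fit.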

[2] = test system: PMN's (polymorphonuclear leukocytes); assay: Neutrophil oxidative burst; conditions: Leukocyte, 40 min, read-out: Neutrophil oxidative burst Rel EC50 range, PMN from buffy coats, 40 min at RT, hydroethidine fluorescence; normalized to 5×10^−7 M PEP0005
How it was run: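 Human buffy-coat neutrophils (2.5×10^5/well) in HBSS with 0.1% BSA, 5 mM glucose treated with compound premixed with 10 μM hydroethidine for 40 min at RT; fluorescence read at 485/579 nm. Normalized to 5×10^−7 M PEP0005; Rel EC50 is midway between fitted top and bottom, Abs EC50 gives 50% of PEP0005 maximum.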

Row | SMILES | EC50 [1] [µM] | EC50 (HeLa cells) [µM] | EC50 [2] [µM]
1 | CC1=C[C@]23C(=O)[C@@H](C=C(CO)[C@@H](O)[C@]2(O)[C@H]1OC(=O)c1c(C)nc2sccn12)[C@H]1[C@@H](C[C@H]3C)C1(C)C [Compound 534, Ingenol 3-(6-methylimidazo[2,1-b]thiazole-5-carboxylate)] | < 0.02 | 150 to 350 | < 0.02
2 | COc1ccccc1-c1noc(C)c1C(=O)O[C@H]1C(C)=C[C@]23C(=O)[C@@H](C=C(CO)[C@@H](O)[C@]12O)[C@H]1[C@@H](C[C@H]3C)C1(C)C [Compound 519, Ingenol 3-(3-(2-methoxyphenyl)-5-methyl-isoxazole-4-carboxylate)] | < 0.02 | < 150 | < 0.02
3 | CC1=C[C@]23C(=O)[C@@H](C=C(CO)[C@@H](O)[C@]2(O)[C@H]1OC(=O)c1c(C)nsc1I)[C@H]1[C@@H](C[C@H]3C)C1(C)C [Compound 553, Ingenol 3-(5-iodo-3-methyl-isothiazole-4-carboxylate)] | < 0.02 | 150 to 350 | < 0.02
4 | CCn1cc(C)c(C(=O)O[C@H]2C(C)=C[C@]34C(=O)[C@@H](C=C(CO)[C@@H](O)[C@]23O)[C@H]2[C@@H](C[C@H]4C)C2(C)C)c1C [Compound 586, Ingenol 3-(1-ethyl-2,4-dimethyl-pyrrole-3-carboxylate)] | < 0.02 | < 150 | < 0.02
